The results in this text go back to US20200325178A1, “PEPTIDE NUCLEIC ACID MOLECULES FOR TREATMENT OF GRAM POSITIVE BACTERIAL INFECTION” (priority 2017, published 2020).

Series [1] concerns MRSA clinical isolates and ATCC strains. Briefly: MIC and MBC against MRSA clinical isolates and ATCC strains. On the set-up: unit not given here. In kind it is cell-based, Staphylococcus aureus. On the procedure:
Bioscreen-C instrument was used to detect the MIC and MBC of PNA-CPP derivatives against S. aureus MRSA strains. Different concentration of PNA-CPP derivatives were prepared in 10 mM of sodium bicarbonate buffer pH-7.4 and added to ˜5.0 Log 10 CFUs in a Honey comb Bioscreen-C plate.
After the growth curve assays, the number of colony forming units (CFU) were counted to determine the MIC and MBC of each PNA-CPP derivative against MRSA.
Minimum inhibitory concentration (MIC) analyses were performed as described in Clinical and Laboratory Standards Institute, Methods for Dilution Antimicrobial Susceptibility Tests for Bacteria that Grow Aerobically, 7th ed.; Approved Standard M7-A7; CLSI: Wayne, Pa., USA, 2006; volume 26, No. 2. […] MIC was determined as the lowest concentration of agent that inhibits bacterial growth detected at A420-580 nm.

The subject of a further series is MRSA. Briefly: In vitro assay of emergence of resistance, MRSA, 8 days. In kind it is cell-based, S. aureus. To be noted: 6.25 μg (twice MBC) in one ml Mueller Hinton broth, 37° C., through Day 8. The method, then: To determine the development of resistance in MRSA and MSSA strains against Compound I-HCl and Compound IV-HCl, an in vitro assay was performed. Twice the amount of MBC of Compound I-HCl (6.25 μg) and Compound IV-HCl (6.25 μg) were mixed with ˜5.0 log 10 CFUs in one ml of Mueller Hinton broth and incubated for 8 days at 37° C. Eight tubes of culture were used for each drug and bacterial strains. At 24 hours of interval, culture tubes were centrifuged and spent media were replaced with fresh media in presence of Compound I-HCl and Compound IV-HCl and further incubated to observe the growth of S. aureus strains. At 24 hours interval, one set of culture tube exposed to drugs were selected and a fraction of the culture used to plate on agar plates to observe the reduction of CFU counts as compared to untreated control. The rest of the culture samples were allowed to grow without any drug for additional 24 hours to observe the growth of S. aureus strains. One set of culture tubes without drug was used as the positive control.

Take “Compound I: PNA-CPP conjugate: PNA cgt cat acg cgg tcc (SEQ ID NO: 51), AEEA linker, CPP BXRXRRXRRXRRXR; FIG. 1 (CGTCATACGCGGTCC; all peptide nucleic acid (PNA); cell-penetrating peptide attached via AEEA linker, further chemistry not fully specified)”: the MBC in series [1] (isolate MRSA#1) is listed as 1.56; in series [1] (isolate MRSA#3) it was 3.25; in series [1] (isolate MRSA#6), 1.56/1.56; in series [1] (isolate MRSA#15) it was 3.25/3.25; in series [1] (isolate MRSA#28), 3.25/3.25; in series [1] (isolate MRSA#31) it was 3.25/3.25. The MBC was 3.25 in series [1] (isolate MRSA#37); 3.25/3.25 in series [1] (isolate MRSA#39); 1.56/1.56 in series [1] (isolate MRSA#42); 3.25 in series [1] (isolate MRSA#43); 3.25 in series [1] (strain USA 300). Besides, the MIC is on record as 0.78 in series [1] (isolate MRSA#1); 1.56 in series [1] (isolate MRSA#3); 1.56/1.56 in series [1] (isolate MRSA#6); 3.25/3.25 in series [1] (isolate MRSA#15); 3.25/3.25 in series [1] (isolate MRSA#28); 3.25/3.25 in series [1] (isolate MRSA#31). In addition, the MIC in series [1] (isolate MRSA#37) is 1.56; in series [1] (isolate MRSA#39), 3.25/3.25; in series [1] (isolate MRSA#42), 1.56/1.56; in series [1] (isolate MRSA#43) it was 1.56; in series [1] (strain USA 300), 1.56. In addition, the “MRSA CFU counts and emergence of resistant strains” value in the series on MRSA is given as “reduced MRSA CFUs without emergence of resistant strains”.
